Data set [1] can be described thus: Metabolic stability in alamethicin treated Sprague-Dawley rat liver microsomes assessed as half life pretreated for 5 mins followed by NADPH addition and measured up to 45 mins by LC-MS/MS analysis. It is filed as ADME, Microsome. To be noted: time < 50 min. (Liver microsomes are vesicles of endoplasmic reticulum, rich in cytochrome P450 enzymes.)
The nature of data set [2]: Metabolic stability in alamethicin treated Beagle dog liver microsomes assessed as half life pretreated for 5 mins followed by UDPGA addition and measured up to 45 mins by LC-MS/MS analysis. To be noted: Beagle, liver microsomes, time < 50 min. It is filed as ADME, Canis lupus familiaris, Microsome.
Data set [3] can be described thus: Antiproliferative activity against human JJN-3R cells assessed as inhibition of cell proliferation measured after 72 hrs by MTS assay. It counts as functional, cell-based.
The nature of data set [4]: Metabolic stability in alamethicin treated CD-1 mouse liver microsomes assessed as half life pretreated for 5 mins followed by UDPGA addition and measured up to 45 mins by LC-MS/MS analysis. It counts as ADME, Microsome. To be noted: time < 50 min.
The nature of data set [5]: Metabolic stability in alamethicin treated human liver microsomes assessed as half life pretreated for 5 mins followed by UDPGA addition and measured up to 45 mins by LC-MS/MS analysis. It is filed as ADME, Microsome. To be noted: time < 50 min.
Data set [6] in a line: Metabolic stability in alamethicin treated Sprague-Dawley rat liver microsomes assessed as half life pretreated for 5 mins followed by UDPGA addition and measured up to 45 mins by LC-MS/MS analysis. It is filed as ADME, Microsome. To be noted: time < 50 min.
Data set [7] has as its target Bromodomain-containing protein 4 (Homo sapiens, UniProt O60885). In words: Inhibition of N-terminal His6-tagged recombinant human BRD4 (44 to 168 residues) expressed in Escherichia coli BL21 (DE3) incubated for 60 mins by TR-FRET assay. On the technique in general: In TR-FRET formats the signal depends on donor and acceptor labels being close together.
Data set [8] is described as follows: Metabolic stability in alamethicin treated cynomologus monkey liver microsomes assessed as half life pretreated for 5 mins followed by NADPH addition and measured up to 45 mins by LC-MS/MS analysis. It counts as ADME, Macaca fascicularis, Microsome. To be noted: cynomolgus monkey, time < 50 min.
Data set [9] is described as follows: Inhibition of c-MYC expression in human JJN-3R cells measured after 4 hrs. It is filed as functional, cell-based.
A short description of data set [10]: Efflux ratio of apparent permeability across […] in human Caco-2 cells after 2 hrs by liquid scintillation counting analysis. It counts as ADME, cell-based. To be noted: caco-2, 2 h.
Data set [11] is described as follows: Metabolic stability in alamethicin treated Beagle dog liver microsomes assessed as half life pretreated for 5 mins followed by NADPH addition and measured up to 45 mins by LC-MS/MS analysis. It is filed as ADME, Canis lupus familiaris, Microsome. To be noted: time < 50 min.
Data set [12] can be described thus: Metabolic stability in alamethicin treated CD-1 mouse liver microsomes assessed as half life pretreated for 5 mins followed by NADPH addition and measured up to 45 mins by LC-MS/MS analysis. To be noted: time < 50 min. It is filed as ADME, Microsome.
A short description of data set [13]: Metabolic stability in alamethicin treated human liver microsomes assessed as half life pretreated for 5 mins followed by NADPH addition and measured up to 45 mins by LC-MS/MS analysis. It counts as ADME, Microsome. To be noted: time < 50 min.
The nature of data set [14]: Metabolic stability in alamethicin treated cynomologus monkey liver microsomes assessed as half life pretreated for 5 mins followed by UDPGA addition and measured up to 45 mins by LC-MS/MS analysis. It is filed as ADME, Macaca fascicularis, Microsome. To be noted: cynomolgus monkey, time < 50 min.

Regarding `[2H]C([2H])([2H])c1nnn(C)c1-c1cnc2c3c(F)cc(C(C)(C)O)cc3n([C@H](c3ccccc3)C3CCOCC3)c2c1`, the half-life – broadly, the time needed for the level to fall by half in the phase considered – in data set [1] turned out to be 62 min; in data set [2] it was 120 min; in data set [4], 120 min; in data set [5], 120 min; in [6], 120 min; in [8], 32 min. In addition, the half-life in [11] was found to be 40 min; in [12], 48 min; in [13] it was 63 min; in data set [14] it was 120 min. The half-maximal inhibitory concentration (IC50) (commonly the concentration that inhibits the measured activity by half) is 10 nM in data set [3], 8 nM in data set [7] and 4.5 nM in data set [9]. In addition, in [10], the Ratio is reported as 9.7.
Regarding `Cc1nnn(C)c1-c1cnc2c3ccc(C(C)C)cc3n([C@H](c3ccccc3)C3CCOCC3)c2c1`, the IC50 came to 39 nM in data set [3], 4 nM in data set [7] and 9 nM in [9].
`[2H]C([2H])([2H])c1nnn(C)c1-c1cnc2c3ccc(S(C)(=O)=O)cc3n([C@H](c3ccccc3)C3CCOCC3)c2c1`: the half-life in [1] was determined as 47 min; in data set [8], 40 min; in data set [11], 34 min; in data set [12], 22 min; in [13] it was 75 min. For the same compound, the IC50 worked out at 13 nM in [3], 1.7 nM in data set [7] and 2 nM in data set [9]. Besides, the Ratio in [10] is given as 4.5.
In the case of `[2H]C([2H])([2H])c1nnn(C)c1-c1cnc2c3ccc(C(C)(C)O)cc3n([C@H](c3ccccc3)C3CCOCC3)c2c1`, the half-life in [1] amounted to 43 min; in data set [8], 29 min; in data set [11], 37 min; in data set [12], 25 min; in [13], 59 min. Further, the IC50 in data set [3] worked out at 6 nM; in [7], 1.2 nM; in [9], 0.8 nM. For the same compound, the Ratio in data set [10] is given as 6.1.
Regarding `COC(C)(C)c1ccc2c3ncc(-c4c(C)nnn4C)cc3n([C@H](c3ccccc3)C3CCOCC3)c2c1`, the half-life in data set [1] was 18 min; in data set [12], 7 min; in data set [13] it was 3 min. For the same compound, the figures for the half-maximal inhibitory concentration (IC50) in [3], in data set [7] and in data set [9] were 7 nM, 1.4 nM and 3 nM, respectively.
Take `Cc1nnn(C)c1-c1cnc2c3ccc(S(C)(=O)=O)cc3n([C@H](c3ccccc3)C3CCOCC3)c2c1`: the half-life in [1] worked out at 44 min; in data set [8] it was 12 min; in data set [11] it was 11 min; in [12] it was 10 min; in data set [13], 41 min. The concentration for half-maximal inhibition (IC50) came to 5 nM in data set [3], 0.9 nM in [7] and 1.2 nM in data set [9]. Further, the Ratio in data set [10] was found to be 7.3.
Regarding `COc1cc2c3ncc(-c4c(C)nnn4C)cc3n([C@H](c3ccccc3)C3CCOCC3)c2cc1C(C)(C)O`, the half-life in data set [1] was 13 min; in [4] it was 120 min; in data set [8], 1 min; in data set [11], 9 min; in data set [12] it was 5 min; in data set [13] it was 9 min. The IC50 is 4 nM in data set [3], 0.8 nM in [7] and 1 nM in [9]. In data set [10], the Ratio amounted to 1.3.
Take `[2H]C([2H])([2H])c1nnn(C)c1-c1cnc2c3c(OC)cc(C(C)(C)O)cc3n([C@H](c3ccccc3)C3CCOCC3)c2c1`: the half-life is 35 min in [1]; 120 min in data set [2]; 120 min in data set [4]; 98 min in data set [5]; 120 min in data set [6]; 11 min in [8]. The half-life in data set [11] came to 73 min; in data set [12] it was 28 min; in data set [13] it was 23 min; in data set [14] it was 120 min. Moreover, the 50% inhibitory concentration (IC50) in data set [3] worked out at 5 nM; in data set [7], 1 nM; in [9], 1 nM. Further, the Ratio in data set [10] is given as > 35.

The values above are taken from ChEMBL document CHEMBL5120938, “Development of BET Inhibitors as Potential Treatments for Cancer: Optimization of Pharmacokinetic Properties” (ACS Med Chem Lett, 2022).
